Test results published in patent US11590139B2, “Substituted aminopurine compounds, compositions thereof, and methods of treatment therewith” (Signal Pharmaceuticals, LLC, priority 2014, dated 2023).
pIC50: −log10 of the molar value.

These compounds were tested on Lox-IMVI melanoma cell line (assay: Lox-IMVI anti-proliferative assay (growth inhibition, Cell Titer-Glo)). Conditions: Homo sapiens; IC50 activity level in the cell-based Lox-IMVI anti-proliferative assay; read-out: Activity.
Format: cell-based, human
Outline: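 Viability read by ATP luminescence (Cell Titer-Glo) at t0 and after 72 h at 37 °C, 5% CO2, with normalisation to DMSO-treated cells. Compound tested at 0.5 nM–10 μM in 3-fold, 10-point series (0.2% DMSO final) on Lox-IMVI in RPMI+10% FBS; IC50 by 4-parameter sigmoidal fit.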
Compound C[C@@H]1CC[C@@H](Nc2ncc3nc(Nc4c(F)cc(F)cc4F)n([C@H]4CC[C@@H](C(N)=O)CC4)c3n2)C[C@H]1O [Example 341, (1S,4s)-4-(2-((1R,3R,4R)-3-hydroxy-4-methylcyclohexylamino)-8-(2,4,6-trifluorophenylamino)-9H-purin-9-yl)cyclohexanecarboxamide] has a pIC50 of under 6.00. Compound NC(=O)[C@H]1CC[C@@H](n2c(Nc3c(F)ccc(Cl)c3F)nc3cnc(N[C@H]4C[C@H](O)C4)nc32)CC1 [Example 286, (1s,4s)-4-(8-(3-chloro-2,6-difluorophenylamino)-2-((1r,3r)-3-hydroxycyclobutylamino)-9H-purin-9-yl)cyclohexanecarboxamide] has a pIC50 of under 6.00. For CC(C)(C)OC(=O)N1CC[C@H](Nc2ncc3nc(Nc4c(F)cc(F)cc4F)n([C@H]4CC[C@@H](C(N)=O)CC4)c3n2)[C@H](F)C1 [Example 127, (3R,4S)-tert-butyl 4-(9-((1s,4R)-4-carbamoylcyclohexyl)-8-(2,4,6-trifluorophenylamino)-9H-purin-2-ylamino)-3-fluoropiperidine-1-carboxylate], the pIC50 was under 6.00. Work on NC(=O)[C@H]1CC[C@@H](n2c(Nc3c(F)cc(Cl)cc3Cl)nc3cnc(NC4CCC(F)(F)CC4)nc32)CC1 [Example 186, (1s,4s)-4-(8-(2,4-dichloro-6-fluorophenylamino)-2-(4,4-difluorocyclohexylamino)-9H-purin-9-yl)cyclohexanecarboxamide] yielded a pIC50 of over 6.60. For NC(=O)[C@H]1CC[C@@H](n2c(Nc3c(F)cc(F)cc3Cl)nc3cnc(NC4CCCC4)nc32)CC1 [Example 119, (1s,4s)-4-(8-(2-chloro-4,6-difluorophenylamino)-2-(cyclopentylamino)-9H-purin-9-yl)cyclohexanecarboxamide], the pIC50 was 6.30 to 6.60. For NC(=O)[C@H]1CC[C@@H](n2c(Nc3cccc(Cl)c3F)nc3cnc(NC4CCCC4)nc32)CC1 [Example 140, (1s,4s)-4-(8-(3-chloro-2-fluorophenylamino)-2-(cyclopentylamino)-9H-purin-9-yl)cyclohexanecarboxamide], the pIC50 was under 6.00.

Same assay, conditions: Homo sapiens; Lox-IMVI anti-proliferative assay, IC50 activity level; read-out: Activity
Work on C[C@]1(C(N)=O)CC[C@H](n2c(Nc3c(F)cc(C#N)cc3F)nc3cnc(NC4CCCC4)nc32)CC1 [Example 487, (1r,4r)-4-(8-(4-cyano-2,6-difluorophenylamino)-2-(cyclopentylamino)-9H-purin-9-yl)-1-methylcyclohexanecarboxamide] yielded a pIC50 of under 6.00. Work on NC(=O)[C@H]1CC[C@@H](n2c(Nc3c(F)cc(F)cc3F)nc3cnc(N[C@H]4CCC[C@H](O)C4)nc32)CC1 [Example 458, (1R,4s)-4-(2-((1S,3S)-3-hydroxycyclohexylamino)-8-(2,4,6-trifluorophenylamino)-9H-purin-9-yl)cyclohexanecarboxamide] yielded a pIC50 of under 6.00. C[C@@H](CO)Nc1ncc2nc(Nc3c(Cl)cc(Cl)cc3Cl)n([C@H]3CC[C@@](C)(C(N)=O)CC3)c2n1 [Example 549, (1R,4s)-4-(2-((S)-1-hydroxypropan-2-ylamino)-8-(2,4,6-trichlorophenylamino)-9H-purin-9-yl)-1-methylcyclohexanecarboxamide] gave a pIC50 of over 6.60. NC(=O)[C@H]1CC[C@@H](n2c(Nc3c(Cl)cc(C(F)(F)F)cc3Cl)nc3cnc(NC4CC5(COC5)C4)nc32)CC1 [Example 570, (1s,4s)-4-(2-(2-oxaspiro[3.3]heptan-6-ylamino)-8-(2,6-dichloro-4-(trifluoromethyl)phenylamino)-9H-purin-9-yl)cyclohexanecarboxamide] was tested, and the pIC50 was under 6.00.

Same assay, conditions: Homo sapiens; Lox-IMVI melanoma cell line, anti-proliferative assay; read-out: Activity (IC50 activity level)
C[C@]1(C(N)=O)CC[C@@H](n2c(Nc3c(F)cc(C#N)cc3F)nc3cnc(NC4CCC4)nc32)CC1 [Example 601, (1s,4s)-4-(8-(4-cyano-2,6-difluorophenylamino)-2-(cyclobutylamino)-9H-purin-9-yl)-1-methylcyclohexanecarboxamide] gave a pIC50 of over 6.60. C[C@]1(C(N)=O)CC[C@@H](n2c(Nc3c(Cl)cc(Cl)cc3Cl)nc3cnc(N[C@@H]4CCOC[C@H]4F)nc32)CC1 [Example 718, (1S,4s)-4-(2-((3S,4R)-3-fluorotetrahydro-2H-pyran-4-ylamino)-8-(2,4,6-trichlorophenylamino)-9H-purin-9-yl)-1-methylcyclohexanecarboxamide] gave a pIC50 of over 6.60.
